This experiment has as its target T1, h P2X3 (Homo sapiens, UniProt P56373).
T1 sequence (P56373 1-397): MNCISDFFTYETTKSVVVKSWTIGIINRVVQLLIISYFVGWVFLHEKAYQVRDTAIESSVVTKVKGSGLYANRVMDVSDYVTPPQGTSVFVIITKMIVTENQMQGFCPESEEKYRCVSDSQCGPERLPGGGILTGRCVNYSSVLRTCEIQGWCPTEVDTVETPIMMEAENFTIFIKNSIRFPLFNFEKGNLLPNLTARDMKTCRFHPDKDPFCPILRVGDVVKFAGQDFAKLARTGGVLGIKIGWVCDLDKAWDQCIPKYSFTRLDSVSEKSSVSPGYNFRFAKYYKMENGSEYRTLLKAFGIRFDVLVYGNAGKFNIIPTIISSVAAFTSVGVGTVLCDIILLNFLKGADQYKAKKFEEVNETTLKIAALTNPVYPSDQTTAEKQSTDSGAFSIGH
In words: In vitro electrophysiology assay for P2X3 (automated whole-cell patch clamp, α,β-MeATP agonist). As to conditions: Table 2; 800 nM α,β-MeATP, peak current; read-out: h P2X3 (pIC50 range of activity) (converted). In kind it is cell-based. Here is the method: In Vitro Electrophysiology Assay for P2X3
Cells expressing P2X3 receptors were grown according to standard practice and maintained at 37° C. in a 5% humidified CO2 atmosphere. The cells were seeded into T175 flask 2 days prior to the day of the assay and dissociated from the flasks using TrypLE when grown to confluence of 80-90%. The dissociated cells were resuspended in serum free media at a cell density of 3×10^6 cells/ml and loaded onto the Sophion Qube automated patch-clamp system. The extracellular assay buffer contained 145 mM NaCl, 4 mM KCl, 2 mM CaCl2, 1 mM MgCl2, 10 mM HEPES, and 10 mM glucose at pH 7.4. The intracellular assay solution contained 140 mM CsF, 10 mM NaCl, 10 mM EGTA, 10 mM HEPES at pH 7.2. Agonist stock solutions were prepared in H2O and diluted in bath solution prior to use. All antagonists were prepared as 10 mM stock solutions in DMSO and diluted in bath solution prior to use. All experiments were performed under the whole-cell patch clamp configuration at room temperature with 384 individual cells being voltage clamped at −60 mV simultaneously on the Sophion Qube instrument. Two baseline responses were established with the application of α,β-MeATP (800 nM), with the subsequent agonist applications being washed out using extracellular assay buffer containing 0.5 U/ml apyrase. Following the second agonist application, antagonist was incubated in the absence of α,β-MeATP for 10 minutes. After antagonist preincubation, 800 nM α,β-MeATP and antagonist were co-administered to determine the inhibitory effect of the antagonist. One concentration of an antagonist was assessed against a single cell, with different concentrations of the antagonist applied to other cells on the 384 recording substrate. The control P2X3 current amplitude was taken from the peak current amplitude from the second agonist response prior to preincubation with antagonist. The peak P2X3 current amplitude in the presence of antagonist was used to calculate the inhibitory effect at each concentration of the antagonist according to the following equation:
Percentage inhibition of P2X3=(P2X3 control peak amplitude−P2X3 antagonist peak amplitude)/P2X3 control peak amplitude)*100
Concentration-response curves were constructed from ten different concentrations with each concentration of antagonist tested on at least two individual cells. The concentration of the antagonist to inhibit P2X3 current by 50% (IC50) was determined by fitting the data with the following equation:
Y=a+[(b−a)/(1+10^((log c−x)d)]
Where ‘a’ is minimum response, ‘b’ is maximum response, ‘c’ is IC50 and ‘d’ is Hill slope.
For `Cc1nnc(C(C)Nc2ncnc3c(S(=O)(=O)N4CCOCC4)cc(-c4ccc(F)cc4)cc23)s1` (racemic) [Example 12, (Rac)-6-(4-fluorophenyl)-N-(1-(5-methyl-1,3,4-thiadiazol-2-yl)ethyl)-8-(morpholinosulfonyl)quinazolin-4-amine], the IC50 was below 316 nM.

Consider `Cc1nnc(C(C)Nc2ncnc3c(OCC(F)F)cc(-c4ccc(F)cn4)cc23)s1` (single isomer, unassigned; enantiomer 2) [Example 7, Single enantiomer 2 of 8-(2,2-difluoroethoxy)-6-(5-fluoro-2-pyridyl)-N-[1-(5-methyl-1,3,4-thiadiazol-2-yl)ethyl]quinazolin-4-amine], for which the IC50 was 3160 to 31600 nM. With `Cc1ccc(CNc2ncnc3c(OCC(F)F)cc(-c4ccc(F)cn4)cc23)nn1` [Example 4, 8-(2,2-difluoroethoxy)-6-(5-fluoropyridin-2-yl)-N-((6-methylpyridazin-3-yl)methyl)quinazolin-4-amine] the figure was 316 to 3160 nM. Consider `Cc1ccc([C@@H](C)Nc2ncnc3c(OCC(F)F)cc(-c4ccc(F)cn4)cc23)nn1` [Example 5, (R)-8-(2,2-difluoroethoxy)-6-(5-fluoropyridin-2-yl)-N-(1-(6-methylpyridazin-3-yl)ethyl)quinazolin-4-amine], for which the IC50 is 316 to 3160 nM. The value for `Cc1ccc(-c2cc(OCC(F)F)c3ncnc(NCc4ccc(C)nn4)c3c2)nc1` [Example 8, 8-(2,2-Difluoroethoxy)-N-((6-methylpyridazin-3-yl)methyl)-6-(5-methylpyridin-2-yl) quinazolin-4-amine] was below 316 nM. The value for `Cc1ccc([C@@H](C)Nc2ncnc3c(S(=O)(=O)N4CCOCC4)cc(-c4ccc(F)cc4)cc23)nn1` [Example 10, (R)-6-(4-fluorophenyl)-N-(1-(6-methylpyridazin-3-yl)ethyl)-8-(morpholinosulfonyl)quinazolin-4-amine] was 316 to 3160 nM; that for `C[C@@H](Nc1ncnc2c(S(=O)(=O)N3CCOCC3)cc(-c3ccc(F)cc3)cc12)c1cnc(C(F)(F)F)nc1` [Example 11] was below 316 nM.

For the compound `Cc1ccc([C@@H](C)Nc2ncnc3c(S(=O)(=O)N(C)C)cc(-c4ccc(F)cc4)cc23)nn1` [Example 13, (R)-6-(4-fluorophenyl)-N,N-dimethyl-4-((1-(6-methylpyridazin-3-yl)ethyl)amino)quinazoline-8-sulfonamide], the IC50 was below 316 nM.

Take `Cc1nnc(C(C)Nc2ncnc3c(S(=O)(=O)N(C)C)cc(-c4ccc(F)cc4)cc23)s1` (centres unmarked) [Example 14, 6-(4-fluorophenyl)-N,N-dimethyl-4-((1-(5-methyl-1,3,4-thiadiazol-2-yl)ethyl)amino)quinazoline-8-sulfonamide]: the IC50 was below 316 nM. The value for `Cc1nnc(C(C)Nc2ncnc3c(S(=O)(=O)N4CCC(F)(F)C4)cc(-c4ccc(F)cc4)cc23)s1` (centres unmarked) [Example 18, 8-((3,3-difluoropyrrolidin-1-yl)sulfonyl)-6-(4-fluorophenyl)-N-(1-(5-methyl-1,3,4-thiadiazol-2-yl)ethyl)quinazolin-4-amine] was 316 to 3160 nM; that for `Cc1ccc([C@@H](C)Nc2ncnc3c(S(=O)(=O)N4CCC(O)CC4)cc(-c4ccc(F)cc4)cc23)nn1` [Example 19, (R)-1-((6-(4-fluorophenyl)-4-((1-(6-methylpyridazin-3-yl)ethyl)amino)quinazolin-8-yl)sulfonyl)piperidin-4-ol] was 316 to 3160 nM; that for `Cc1nc([C@@H](C)Nc2ncnc3c(S(=O)(=O)N4CCC(O)CC4)cc(-c4ccc(F)cc4)cc23)no1` [Example 20, (R)-1-((6-(4-fluorophenyl)-4-((1-(5-methyl-1,2,4-oxadiazol-3-yl)ethyl)amino)quinazolin-8-yl)sulfonyl)piperidin-4-ol] was below 316 nM. As for `CNS(=O)(=O)c1cc(-c2ccc(F)cc2)cc2c(NC(C)c3nnc(C)s3)ncnc12` (centres unmarked) [Example 23], the IC50 is 316 to 3160 nM. With `Cc1ccc([C@@H](C)Nc2ncnc3c(S(=O)(=O)N4CCNCC4)cc(-c4ccc(F)cc4)cc23)nn1` [Example 24, (R)-6-(4-fluorophenyl)-N-(1-(6-methylpyridazin-3-yl)ethyl)-8-(piperazin-1-ylsulfonyl)quinazolin-4-amine] the figure was 316 to 3160 nM; with `Cc1nc([C@@H](C)Nc2ncnc3c(S(=O)(=O)N4CCNCC4)cc(-c4ccc(F)cc4)cc23)no1` [Example 25, (R)-6-(4-fluorophenyl)-N-(1-(5-methyl-1,2,4-oxadiazol-3-yl)ethyl)-8-(piperazin-1-ylsulfonyl)quinazolin-4-amine], 316 to 3160 nM; with `CSc1cc(-c2ccc(F)cc2)cc2c(N[C@H](C)c3ccc(C)nn3)ncnc12` [Example 26, (R)-6-(4-fluorophenyl)-N-(1-(6-methylpyridazin-3-yl)ethyl)-8-(methylthio)quinazolin-4-amine], 316 to 3160 nM.

On to `Cc1ccc([C@@H](C)Nc2ncnc3c(SC4COC4)cc(-c4ccc(F)cc4)cc23)nn1` [Example 28, (R)-6-(4-fluorophenyl)-N-(1-(6-methylpyridazin-3-yl)ethyl)-8-(oxetan-3-ylthio)quinazolin-4-amine], for which the IC50 is 3160 to 31600 nM. The value for `Cc1ccc([C@@H](C)Nc2ncnc3c([S+]([O-])C4COC4)cc(-c4ccc(F)cc4)cc23)nn1` (stereo partly drawn) [Example 29, 6-(4-fluorophenyl)-N-((R)-1-(6-methylpyridazin-3-yl)ethyl)-8-(oxetan-3-ylsulfinyl)quinazolin-4-amine] was 3160 to 31600 nM; that for `CC(=O)N1CC[C@@H](Oc2cc(-c3ccc(F)cc3)cc3c(N[C@H](C)c4cnc(C(F)(F)F)nc4)ncnc23)C1` [Example 30] was 316 to 3160 nM; that for `CC(=O)N1CC[C@H](Oc2cc(-c3ccc(F)cc3)cc3c(N[C@H](C)c4cnc(C(F)(F)F)nc4)ncnc23)C1` [Example 31] was 316 to 3160 nM. With `CC(=O)N[C@H]1CC[C@@H](Oc2cc(-c3ccc(F)cc3)cc3c(N[C@H](C)c4cnc(C(F)(F)F)nc4)ncnc23)CC1` [Example 32, N-((1S,4s)-4-((6-(4-fluorophenyl)-4-(((R)-1-(2-(trifluoromethyl)pyrimidin-5-yl)ethyl)amino)quinazolin-8-yl)oxy)cyclohexyl)acetamide] the figure was 316 to 3160 nM; with `C[C@@H](Nc1ncnc2c(OC3CCN(CC(F)(F)F)C3)cc(-c3ccc(F)cc3)cc12)c1cnc(C(F)(F)F)nc1` (stereo partly drawn) [Example 33, 6-(4-fluorophenyl)-8-((1-(2,2,2-trifluoroethyl)pyrrolidin-3-yl)oxy)-N-((R)-1-(2-(trifluoromethyl)pyrimidin-5-yl)ethyl)quinazolin-4-amine], 316 to 3160 nM.

Take `CC(=O)N1CCC(Oc2cc(-c3ccc(F)cc3)cc3c(N[C@H](C)c4cnc(C(F)(F)F)nc4)ncnc23)CC1` [Example 35, (R)-1-(4-((6-(4-fluorophenyl)-4-((1-(2-(trifluoromethyl)pyrimidin-5-yl)ethyl)amino)quinazolin-8-yl)oxy)piperidin-1-yl)ethan-1-one]: the IC50 was 316 to 3160 nM.

With `C[C@@H](Nc1ncnc2c(OC3CCN(CC(F)(F)F)CC3)cc(-c3ccc(F)cc3)cc12)c1cnc(C(F)(F)F)nc1` [Example 36], the IC50 is 316 to 3160 nM. The value for `C[C@@H](Nc1ncnc2c(OCC3(O)COC3)cc(-c3ccc(F)cc3)cc12)c1cnc(C(F)(F)F)nc1` [Example 37, (R)-3-(((6-(4-fluorophenyl)-4-((1-(2-(trifluoromethyl)pyrimidin-5-yl)ethyl)amino)quinazolin-8-yl)oxy)methyl)oxetan-3-ol] was below 316 nM; that for `C[C@@H](Nc1ncnc2c(OCc3cc(O)no3)cc(-c3ccc(F)cc3)cc12)c1cnc(C(F)(F)F)nc1` [Example 38, (R)-5-(((6-(4-fluorophenyl)-4-((1-(2-(trifluoromethyl)pyrimidin-5-yl)ethyl)amino)quinazolin-8-yl)oxy)methyl)isoxazol-3-ol] was below 316 nM.

For the origin of these results see patent US20240025880A1 (CHIESI FARMACEUTICI S.P.A., priority 2020, published 2024).
